2 molecules from patent US20160250277A1, “[…] OPIOID RECEPTOR AGONISTS FOR PREVENTING, INHIBITING OR TREATING NAUSEA AND VOMITING” (CARA THERAPEUTICS, INC., priority 2013, published 2016) can be followed below.

Bounds are passed on as bounds.

Data set [1] deals with “Chung Model” of neuropathic pain. The experiment in a line: “Chung Model” of neuropathic pain (paw withdrawal threshold). The data set is classed as in vivo, rats. Conditions: for blockade of CR845 effect by kappa antagonist into injured paw: intraplantar 0.2 mg, 15 min prior to CR845 1 mg/kg, rats. As for the experimental part:
FIG. 1: Efficacy of CR845 in “Chung Model” of neuropathic pain is blocked with Peripheral (Intrapaw) administration of a kappa antagonist (norBNI) in rats. *** denotes p<0.001 compared to vehicle-treated controls (two-way ANOVA). Vehicle or Nor-BNI was administered intraplantarly (0.2 mg) 15 min prior to CR845. Injection (1 mg/kg). N=6 male rats/group, mean±SEM.
The peripheral mechanism of action of CR845 is supported preclinically by both biochemical in vitro assays and in vivo functional pharmacological studies. […] Moreover, in standard preclinical pain models, such as the “Chung Model” of neuropathic pain, the analgesic action of CR845 was blocked with kappa opioid receptor antagonists administered directly to the local site of injury, indicating a peripheral site of action for CR845 (FIG. 1). In the “Chung Model”, neuropathic pain is induced experimentally by ligating spinal nerves mediating sensation for a hind limb. […] Sets of different thickness filaments are used to test sensitivity, each of which is designed to produce a given force (in grams) upon bending after contact. By testing with these filaments, the minimum force to evoke a withdrawal response defines the paw withdrawal threshold. The nerve injury produces a marked reduction in paw withdrawal thresholds (increased sensitivity to force) in response to probing with the filaments.

Data set [2] can be described thus: pharmacokinetic studies, drug in extracted brain tissue. In kind it is in vivo. Conditions: animals, analgesic and supra-analgesic doses.
In data set [3] the test system is acute and chronic visceral, inflammatory and neuropathic pain. The experiment in a line: standard preclinical pain models. The data set is classed as in vivo. The procedure: (§1) The analgesic effect of CR845 was recordable within 15 minutes post-administration and lasted for up to 18 hours following single-dose administration.
The subject of data set [4] is patients following bunionectomy surgery. To be noted: human, in vivo.
For the next data set, the system named is human subjects. Conditions: in vivo.
Data set [5] has as its system patients undergoing laparoscopic hysterectomy. Conditions: human, in vivo.
Data set [6] deals with pro-inflammatory mediators. The experiment in a line: production and release of pro-inflammatory mediators. To be noted: preclinical. As for the experimental part:
as §1

Consider `CC(C)C[C@@H](NC(=O)[C@@H](Cc1ccccc1)NC(=O)[C@H](N)Cc1ccccc1)C(=O)N[C@H](CCCCN)C(=O)N1CCC(N)(C(=O)O)CC1` [CR845, D-Phe-D-Phe-D-Leu-D-Lys-[ω(4-aminopiperidine-4-carboxylic acid)]-OH], for which the “paw withdrawal threshold (neuropathic pain)” value in data set [1] (I.V. CR845 1 mg/kg, male rats) is “reduces this neuropathic pain as demonstrated by a subsequent increase in the withdrawal threshold”. For the same molecule, the “concentration of drug in extracted brain tissue” value in data set [2] is “no measurable concentrations of drug in extracted brain tissue”. For the same molecule, the “duration of analgesic effect” value in data set [3] (following single-dose administration) is “up to 18 hours”. In addition, the “onset of analgesic effect post-administration” value in data set [3] (preclinical pain models) is at most 15 min. In addition, the “attenuation of pain in preclinical pain models” value in data set [3] (standard preclinical pain models) is “successfully attenuated acute and chronic visceral, inflammatory and neuropathic pain in a dose-dependent manner”. For the same molecule, in data set [4], the SPID0-36 vs placebo result is reported as “statistically significant”; the SPID0-48 vs placebo entry was “statistically significant”; the “SPID scores 0-24, 0-36, 0-48 vs placebo” value is given as “Numerical improvements in SPID scores”; the “acute psychiatric side effects” value is recorded as “no evidence of acute psychiatric side effects”. In addition, in data set [4], the “cases of somnolence reported” value is “seven”; the “mean PID from baseline at each time interval across 48 hours vs placebo” value is “numerically superior”; the “mean plasma sodium concentration vs normal range” value is “not outside the normal physiological range”; the “most frequent TEAEs (greater than 10%)” value was “transient facial tingling and somnolence”. In data set [4], the “pain intensity differences 0-12 hour time interval vs placebo” value was “Statistically significant reductions in pain intensity differences”, the “pain intensity differences 0-36 hour time interval vs placebo” value was “Statistically significant reductions in pain intensity differences”, the “reduction of incidence of nausea vs placebo” value is reported as 60% and the “reduction of incidence of vomiting vs placebo” value amounted to 80%. For the same molecule, the “rise of mean plasma sodium concentration from baseline” value in data set [4] is “approximately 3%”. Also, the SPID0-24 vs placebo result in data set [4] (iv, 0.005 mg/kg) was “statistically significant reduction in pain intensity compared to placebo”. Also, the drug-related respiratory depression entry with human subjects is recorded as “no evidence of drug-related respiratory depression”. Besides, in data set [5], the “PID for 0-4, 0-8 and 0-16 hour time intervals vs Placebo/Placebo” value was “statistically significant improvements”; the “Responders in global evaluation of study medication vs placebo” value was “higher percentage of patients”; the “SPID over 0-8, 0-12 and 0-16 time periods vs Placebo/Placebo” value was “reduced pain intensity compared to the Placebo/Placebo group in a statistically significant manner”; the “greater reduction in pain intensity at 24 hours vs Placebo/Placebo” value is reported as “approximately 60%”. In data set [5], the “improvement in mean SPID values 0-4 hour vs Placebo/Placebo” value came out at 3.5 fold, the “mean TOTPAR0-2 (pain relief within first 2 hours) vs Placebo/Placebo” value is on record as “statistically superior pain relief”, the “mean TOTPAR 0-12 hour interval vs Placebo/Placebo” value was “reached statistical significance” and the “mean TOTPAR scores across all intervals vs Placebo/Placebo” value is on record as “numerically superior”. In data set [5], the “pain intensity for 0-8 and 0-16 hour time intervals vs Placebo/Placebo” value was “statistically significant decreases in pain intensity”; the “patients who experienced nausea” value was 26.1%; the “patients who experienced vomiting” value came to 1.7%; the “pruritus reported vs placebo” value is “less pruritus”. Moreover, in data set [5], the “reduction of incidence of nausea vs placebo” value is given as “approximately 50%”; the “reduction of incidence of vomiting vs placebo” value is reported as around 80%; the “reported pain relief (TOTPAR) for 0-4, 2-4 and 0-8 hour time periods” value is on record as “statistically significant improvements in reported pain relief”. In addition, the “mean PID from baseline at each time interval vs Placebo/Placebo” value in data set [5] (iv) is listed as “numerically superior”. Also, the “blood sodium increase (hypernatremia), share of total patients” value in data set [5] (iv, 0.04 mg/kg) was determined as 14%. The “production and release of pro-inflammatory mediators” value in data set [6] is “decreased the production and release of pro-inflammatory mediators”.

For `Oc1ccc2c3c1O[C@H]1c4[nH]c5c(c4C[C@@]4(O)[C@@H](C2)N(CC2CC2)CC[C@]314)C[C@@]1(O)[C@H]2Cc3ccc(O)c4c3[C@@]1(CCN2CC1CC1)[C@H]5O4` [nor-BNI, nor-binaltorphamine], the entries for the “blockade of CR845 effect by kappa antagonist into injured paw” value in data set [1] and in data set [1] (listed as norBNI) were “significantly reduces the effect of CR845” and “blocked”, respectively.
